Reference: patent publication US12139459B2, “Enhancer of fertilization function of sperm” (TOHOKU UNIVERSITY, priority 2018, dated 2024)
Blank lines part the entries; values can stand above or below the compound they belong to.

Legend:
[1] = test system: sperms of male C57/B6 mice (fertilization function of a mammal sperm); test: Semination by in vitro fertilization with sperms precultured in test culture medium; two-cell egg formation; assay type: cell-based

SMILES: O=C(CC(C(=O)O)c1c[nH]c2cccc(Cl)c12)c1ccc(F)cc1F (centres unmarked) [(2-1), 2-(4-chloro-1H-indol-3-yl)-4-(2,4-difluorophenyl)-4-oxo-butanoic Acid]
- melting point: 203 to 204 °C

SMILES: O=C(CC(C(=O)O)c1c[nH]c2cc(OCc3ccccc3)ccc12)c1ccc(F)cc1F (centres unmarked) [(4-2), 2-(6-benzyloxy-1H-indol-3-yl)-4-(2,4-difluorophenyl)-4-oxo-butanoic Acid]
- melting point: 177 to 178 °C

SMILES: O=C(CC(C(=O)O)c1c[nH]c2c(Cl)cccc12)c1ccc(F)cc1F (centres unmarked) [(5-1), 2-(7-chloro-1H-indol-3-yl)-4-(2,4-difluorophenyl)-4-oxo-butanoic Acid]
- melting point: 225 to 227 °C

SMILES: COc1cccc2c(C(CC(=O)c3ccc(F)cc3F)C(=O)O)c[nH]c12 (centres unmarked) [(5-2), 4-(2,4-difluorophenyl)-2-(7-methoxy-1H-indol-3-yl)-4-oxo-butanoic Acid]
- melting point: 181 to 183 °C

SMILES: Cn1cc(C(CC(=O)c2ccc(F)cc2F)C(=O)O)c2ccccc21 (centres unmarked) [(6-1), 4-(2,4-difluorophenyl)-2-(1-methyl-1H-indol-3-yl)-4-oxo-butanoic Acid]
- melting point: 192 to 193 °C

SMILES: O=C(CC(C(=O)O)c1c[nH]c2ccccc12)c1ccc(F)cc1F (centres unmarked) [Compound #5, 4-(2,4-Difluorophenyl)-2-(1H-indol-3-yl)-4-oxo-butanoic Acid]
- The number of two-cell eggs ([1]; sperms precultured 1 hour in TYH culture medium containing 1 μM compound #5, 11 ova): 11
- Fertilization rate (%) ([1]; sperms precultured 1 hour in TYH culture medium containing 1 μM compound #5, two-cell eggs observed 24 to 28 hours after semination, control without compound 40%): 100%
- The number of two-cell eggs ([1]; sperms precultured 1 hour in TYH culture medium containing 10 μM FCCP and 1 μM compound #5, 10 ova): 5
- Fertilization rate (%) ([1]; sperms precultured 1 hour in TYH culture medium containing 10 μM FCCP and 1 μM compound #5, FCCP alone 30%): 50%

SMILES: CCCn1cc(C(CC(=O)c2ccc(C)cc2C)C(=O)O)c2ccccc21 (centres unmarked) [Compound #6, 4-(2,4-Dimethylphenyl)-2-(1-propyl-1H-indol-3-yl)-4-oxo-butanoic Acid]
- melting point: 139 to 141 °C

SMILES: CCCCOc1ccc2cccc(CC(=O)O)c2c1 [Compound #33, α-(7-Butoxy-1-naphthalenyl)-acetic Acid]
- melting point: 102 to 104 °C

SMILES: CCCCCOc1ccc2cccc(CC(=O)O)c2c1 [Compound #34, α-(7-Pentoxy-1-naphthalenyl)-acetic Acid]
- melting point: 104 to 106 °C

SMILES: CCCCOc1ccc2[nH]cc(CC(=O)O)c2c1 [Compound #39, 5-(1-Butoxy)-3-indoleacetic Acid]
- melting point: 137.8 to 141.1 °C

SMILES: O=C(CC(C(=O)O)c1c[nH]c2cc(F)ccc12)c1ccc(F)cc1F (centres unmarked) [Compound (4-1), 4-(2,4-difluorophenyl)-2-(6-fluoro-1H-indol-3-yl)-4-oxo-butanoic Acid]
- melting point: 210 to 214 °C

SMILES: N#CC(C#N)=NNc1ccc(OC(F)(F)F)cc1 [FCCP, carbonyl cyanide-p-trifluoromethoxyphenylhydrazone, reference compound]
- Fertilization rate (%) ([1]; sperms precultured 1 hour in TYH culture medium containing 10 μM FCCP (uncoupler), control without FCCP 47.4%): 30%
- The number of two-cell eggs ([1]; sperms precultured 1 hour in TYH culture medium containing 10 μM FCCP, 10 ova): 3

Further lines, results first:

- melting point: 207 to 208 °C
SMILES: O=C(CC(C(=O)O)c1c[nH]c2ccc(F)cc12)c1ccc(F)cc1F (centres unmarked)

- melting point: 236 to 239 °C
SMILES: O=C(CC(C(=O)O)c1c[nH]c2ccc(Cl)cc12)c1ccc(F)cc1F (centres unmarked) [(3-2), 2-(5-chloro-1H-indol-3-yl)-4-(2,4-difluorophenyl)-4-oxo-butanoic Acid]

- melting point: 200 to 202 °C
SMILES: Cc1ccc2[nH]cc(C(CC(=O)c3ccc(F)cc3F)C(=O)O)c2c1 (centres unmarked) [(3-3), 4-(2,4-difluorophenyl)-2-(5-methyl-1H-indol-3-yl)-4-oxo-butanoic Acid]

- melting point: 205 to 206 °C
SMILES: COc1ccc2[nH]cc(C(CC(=O)c3ccc(F)cc3F)C(=O)O)c2c1 (centres unmarked) [(3-4), 4-(2,4-difluorophenyl)-2-(5-methoxy-1H-indol-3-yl)-4-oxo-butanoic Acid]

- melting point: 149 to 150 °C
SMILES: O=C(CC(C(=O)O)c1c[nH]c2ccccc12)c1ccccc1 (centres unmarked) [Compound #20, 4-Phenyl-2-(1H-indol-3-yl)-4-oxo-butanoic Acid]

- melting point: 86 to 92.7 °C
SMILES: CCOc1ccc2[nH]cc(CC(=O)O)c2c1 [Compound #37, 5-Ethoxy-3-indoleacetic Acid]

- melting point: 133.6 to 136.8 °C
SMILES: CCCOc1ccc2[nH]cc(CC(=O)O)c2c1 [Compound #38, 5-(1-Propoxy)-3-indoleacetic Acid]
